Some test systems named below: CCRF-CEM; COLO 205; DMS-114; EKVX; HCT-15; HL-60; MDA-MB-435; MDA-N; MOLT-4; Malme-3M; NCI/ADR-RES; OVCAR-3; OVCAR-4; SF-268; SF-539; SNB-19; SR; UACC-62; UO-31.
Common to all, as to experiment: NCI-60 cell line screen, 48 h

From ChEMBL document CHEMBL1201862, “PubChem BioAssay data set” (2004) come the findings set out here.

Molecules are shown by their SMILES.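 Assay format: 96-well plates, 48-hour exposure. GI50 is the concentration that inhibits growth by half.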 Activity calls are given as the source filed them. Cut-off read from the data, not from the text of the source: active = GI50 up to about 1.1 µM and inactive = higher.

As to `COc1ccc(OC)c2c1C(=O)C(Cl)=C(Cl)C2=O`, the GI50 with CCRF-CEM was 14.6 µM (inactive); in the test with COLO 205, 1.56 µM (inactive); with DMS-114 it was 2.16 µM (inactive); with EKVX it was 8.3 µM (inactive); in the test on HCT-15, 3.3 µM; in the test with HL-60, 44.5 µM (inactive). In addition, the GI50 in the test with MDA-MB-435 was 2.31 µM (inactive); with MDA-N it was 2.08 µM (inactive); in the test with MOLT-4 it was 2.51 µM (inactive); with Malme-3M it was 2.25 µM (inactive); in the test with NCI/ADR-RES, 2.58 µM (inactive); in the test on OVCAR-3 it was 2.39 µM (inactive). Moreover, the GI50 in the test with OVCAR-4 is 3.54 µM (inactive); in the test on SF-268, 13.5 µM (inactive); in the test with SF-539, 4.72 µM (inactive); with SNB-19, > 46 µM (inactive); in the test with SR, 1.16 µM (inactive); in the test with UACC-62, 2.58 µM (inactive). Also, the GI50 in the test with UO-31 is 2.44 µM (inactive).

Consider `Oc1ncnc2c1sc(=S)n2-c1ccccc1`, for which the GI50 was > 100 µM (inactive) in the test with CCRF-CEM; > 100 µM (inactive) with COLO 205; > 100 µM (inactive) with DMS-114; > 100 µM (inactive) with EKVX; > 100 µM with HCT-15; > 100 µM (inactive) with HL-60. In addition, the GI50 in the test with MOLT-4, with Malme-3M, in the test on OVCAR-3, with OVCAR-4, in the test on SF-268 and with SF-539 was > 100 µM (inactive) in each case. For the same molecule, the GI50 in the test on SNB-19 was > 100 µM (inactive); in the test with SR, > 100 µM (inactive); in the test with UACC-62, > 100 µM (inactive); in the test on UO-31 it was 74.6 µM (inactive).

`CN(C)CCCNc1ccc2ncn3c4ccccc4c(=O)c1c23`: the GI50 with CCRF-CEM was 4.39 µM (inactive); in the test with COLO 205, 2.49 µM (inactive); with DMS-114 it was 10.5 µM (inactive); in the test with HCT-15, 8.53 µM; in the test on HL-60, 6.41 µM (inactive); in the test on MOLT-4, 2.91 µM (inactive). Besides, the GI50 was 13.7 µM (inactive) with Malme-3M; 16 µM (inactive) in the test with OVCAR-3; 21.9 µM (inactive) in the test with OVCAR-4; 7.6 µM (inactive) with SF-268; 8.73 µM (inactive) in the test with SF-539; 20.3 µM (inactive) in the test with SNB-19. In addition, the values for the GI50 in the test on SR, in the test with UACC-62 and with UO-31 were 2.94 µM (inactive), 12.8 µM (inactive) and 9.27 µM (inactive), respectively.

As to `Cc1ccc(/N=N/c2c(-c3ccccc3)nn(C(=O)CC(=O)Nc3ccc(Cl)cc3)c2-c2ccccc2)cc1`, the GI50 with CCRF-CEM was 18.6 µM (inactive); in the test on COLO 205 it was 59.3 µM (inactive); in the test on DMS-114 it was 44.5 µM (inactive); with EKVX it was 2.3 µM (inactive); in the test with HCT-15, 56.4 µM; with HL-60, 32.4 µM (inactive). For the same molecule, the GI50 in the test with MOLT-4 is 21.3 µM (inactive); in the test with Malme-3M it was 83.6 µM (inactive); in the test on OVCAR-3 it was 26.2 µM (inactive); in the test with OVCAR-4, 77.3 µM (inactive); in the test with SF-268, 70.5 µM (inactive); with SF-539, 58.9 µM (inactive). The GI50 was 49.7 µM (inactive) with SNB-19, 12.3 µM (inactive) in the test with SR, 70.5 µM (inactive) with UACC-62 and 27.7 µM (inactive) with UO-31.

On to `C=CC(OCC)(OCC)OCC`, for which the GI50 in the test with CCRF-CEM was > 100 µM (inactive); with COLO 205 it was > 100 µM (inactive); in the test on DMS-114, 15.6 µM (inactive); in the test with EKVX, > 100 µM (inactive); in the test on HCT-15 it was 53.1 µM; with HL-60, > 100 µM (inactive). Further, the GI50 in the test with MOLT-4, in the test on Malme-3M, in the test with OVCAR-3, in the test on OVCAR-4, with SF-268 and in the test on SF-539 was > 100 µM (inactive) each time. Further, the GI50 in the test on SNB-19 was > 100 µM (inactive); with SR it was 29.9 µM (inactive); with UACC-62, > 100 µM (inactive); in the test with UO-31, > 100 µM (inactive).

As to `COC(=O)[C@H](C)[C@H]1CC[C@@](C)([C@H]2CC3C(C)(C)[C@H]4CCC(C)=C[C@H]4C[C@@]3(C)O2)OO1` (some centres undefined), the GI50 with CCRF-CEM is 4.2 µM (inactive); with COLO 205 it was 9.66 µM (inactive); in the test on DMS-114, 3.58 µM (inactive); in the test with EKVX it was 13.7 µM (inactive); in the test with HCT-15 it was 10.5 µM; in the test on HL-60, 2.05 µM (inactive). Besides, the GI50 with MOLT-4 was 7.13 µM (inactive); in the test with Malme-3M, 14.1 µM (inactive); with OVCAR-3, 13.2 µM (inactive); with OVCAR-4, 11.9 µM (inactive); in the test with SF-268, 8.77 µM (inactive); in the test with SF-539, 15 µM (inactive). Moreover, the GI50 with SNB-19 is 14.8 µM (inactive); in the test on SR it was 9.12 µM (inactive); in the test with UACC-62 it was 13.6 µM (inactive); in the test on UO-31, 6.52 µM (inactive).

Turning to `NS(=O)(=O)c1ccc(NC(=O)Cc2nc3ccccc3s2)cc1`, the GI50 was 13.4 µM (inactive) in the test with CCRF-CEM; 19.5 µM (inactive) with COLO 205; 15.1 µM (inactive) with DMS-114; 22.6 µM (inactive) in the test with EKVX; 17.7 µM in the test on HCT-15; 19.1 µM (inactive) in the test on HL-60. The GI50 in the test on MOLT-4 is 20.1 µM (inactive); with Malme-3M, 16 µM (inactive); with OVCAR-3 it was 16.8 µM (inactive); with OVCAR-4, 19.3 µM (inactive); with SF-268 it was 16.2 µM (inactive); in the test with SF-539, 18.3 µM (inactive). Besides, the GI50 in the test on SNB-19 is 23.5 µM (inactive); in the test with SR, 20.1 µM (inactive); in the test on UACC-62, 15.7 µM (inactive); in the test on UO-31, 22.5 µM (inactive).

Consider `CC1(C)CC2(S(=O)(=O)c3ccccc3)ON1CC2S(=O)(=O)c1ccccc1` (centres undefined), for which the GI50 with CCRF-CEM is 26.8 µM (inactive); in the test on COLO 205 it was > 100 µM (inactive); in the test on DMS-114, 67.1 µM (inactive); in the test on EKVX, > 100 µM (inactive); in the test on HCT-15, > 100 µM; in the test with HL-60, 26.4 µM (inactive). Further, the GI50 in the test with MOLT-4 was 30.8 µM (inactive); with Malme-3M it was > 100 µM (inactive); in the test with OVCAR-3, > 100 µM (inactive); in the test on OVCAR-4 it was 54.6 µM (inactive); in the test with SF-268, > 100 µM (inactive); with SF-539 it was > 100 µM (inactive). The GI50 in the test on SNB-19 is > 100 µM (inactive); with SR it was 39.4 µM (inactive); in the test on UACC-62, 91.2 µM (inactive); with UO-31, 94.2 µM (inactive).

`COCc1cc2c(s1)C(=O)C1=C(C2=O)C2(C=C(Br)C(=O)C(Br)=C2)CCN1`: the GI50 is 3.01 µM (inactive) in the test with CCRF-CEM; 3.02 µM (inactive) in the test on COLO 205; 1.73 µM (inactive) in the test with DMS-114; 11.7 µM (inactive) in the test with EKVX; 3.13 µM in the test on HCT-15; 2.36 µM (inactive) with HL-60. Moreover, the GI50 with MDA-MB-435 is 1.58 µM (inactive); in the test on MDA-N, 1.73 µM (inactive); in the test with MOLT-4, 2.43 µM (inactive); in the test with Malme-3M, 0.946 µM (active); with NCI/ADR-RES it was 3.52 µM (inactive); in the test with OVCAR-3, 0.809 µM (active). Besides, the GI50 in the test with OVCAR-4 was 1.65 µM (inactive); in the test on SF-268 it was 4.86 µM (inactive); in the test on SF-539 it was 4.65 µM (inactive); with SNB-19, 18.3 µM (inactive); in the test on SR it was 1.49 µM (inactive); in the test on UACC-62 it was 1.56 µM (inactive). Besides, the GI50 in the test on UO-31 was 12.8 µM (inactive).

As to `COC(=O)C1Cc2c(n(C)c3ccccc23)C(c2ccccc2)N1` (centres undefined), the GI50 in the test with CCRF-CEM is 52.1 µM (inactive); in the test on COLO 205, 23 µM (inactive); in the test on DMS-114, 21.8 µM (inactive); in the test on EKVX, 92.3 µM (inactive); with HCT-15 it was 14.2 µM; in the test with HL-60, 10.1 µM (inactive). The GI50 in the test with MOLT-4 was 29.6 µM (inactive); in the test on Malme-3M, > 100 µM (inactive); in the test on OVCAR-3, 53 µM (inactive); with OVCAR-4 it was 50.5 µM (inactive); in the test with SF-268 it was > 100 µM (inactive); in the test on SF-539, > 10 µM (inactive). Also, the GI50 in the test on SNB-19 is > 100 µM (inactive); in the test with SR, 67.9 µM (inactive); in the test on UACC-62, 62.8 µM (inactive); in the test on UO-31 it was > 100 µM (inactive).

On to `CCCNc1ncnc2c1cnn2C`, for which the GI50 with CCRF-CEM was > 100 µM (inactive); in the test with COLO 205, > 100 µM (inactive); with DMS-114, > 100 µM (inactive); with HCT-15, > 100 µM; in the test with HL-60 it was > 100 µM (inactive); with MOLT-4, > 100 µM (inactive). Moreover, the GI50 with Malme-3M, in the test with OVCAR-3, in the test on OVCAR-4, in the test with SF-268, in the test with SF-539 and in the test on SNB-19 was > 100 µM (inactive) throughout. For the same molecule, the GI50 with SR and with UACC-62 was > 100 µM (inactive) in each case.

Take `CC1C[C@H](C)CC(C(O)CC2CC(=O)N(Cc3ccccc3)C(=O)C2)C1O` (some centres undefined): the GI50 in the test on CCRF-CEM, with COLO 205, in the test on DMS-114, in the test on EKVX, in the test with HL-60 and in the test on MOLT-4 was > 100 µM (inactive) each time. In addition, the GI50 in the test on Malme-3M, with OVCAR-3, in the test on OVCAR-4, with SF-268, in the test on SF-539 and in the test with SNB-19 was > 100 µM (inactive) in each case. Also, the GI50 in the test with SR, in the test on UACC-62 and in the test with UO-31 was > 100 µM (inactive) each time.
